Test results taken from the NIST ThermoML archive (doi:10.1016/j.fluid.2009.01.011).
Numbers after ± are expanded uncertainties.

Assay: activity coefficient (dimensionless); of the first substance listed, at infinite dilution; xn = mol fraction of the nth substance listed
Conditions: Liquid, Chromatography, x1 = 0

Row | Compound | activity coefficient (298.15 K) | activity coefficient (308.15 K) | activity coefficient (318.15 K) | activity coefficient (328.15 K) | activity coefficient (338.15 K) | activity coefficient (348.15 K) | activity coefficient (358.15 K) | activity coefficient (368.15 K)
1 | Cc1ccc(C)cc1 [1,4-dimethylbenzene] + CCCC[N+]1(C)CCCC1.O=S(=O)([O-])C(F)(F)F |  | 3.32 ± 0.15 | 3.35 ± 0.15 | 3.38 ± 0.15 | 3.4 ± 0.15 | 3.43 ± 0.15 | 3.45 ± 0.15 | 3.48 ± 0.15
2 | C1CCCCC1 [cyclohexane] + CCCC[N+]1(C)CCCC1.O=S(=O)([O-])C(F)(F)F | 25.7 ± 1.1 | 23.4 ± 1 | 21.4 ± 1 | 19.7 ± 0.9 | 18.1 ± 0.8 | 16.8 ± 0.7 | 15.6 ± 0.7 | 14.6 ± 0.6
3 | c1ccccc1 [benzene] + CCCC[N+]1(C)CCCC1.O=S(=O)([O-])C(F)(F)F | 1.41 ± 0.06 | 1.44 ± 0.06 | 1.46 ± 0.06 | 1.48 ± 0.06 | 1.5 ± 0.06 | 1.53 ± 0.06 | 1.54 ± 0.06 | 1.56 ± 0.06
4 | C1CCCC1 [cyclopentane] + CCCC[N+]1(C)CCCC1.O=S(=O)([O-])C(F)(F)F | 19.2 ± 0.9 | 17.4 ± 0.8 | 15.9 ± 0.7 | 14.6 ± 0.6 | 13.5 ± 0.6 | 12.6 ± 0.6 | 11.7 ± 0.5 | 11 ± 0.5
5 | COC(C)(C)C [2-methoxy-2-methylpropane] + CCCC[N+]1(C)CCCC1.O=S(=O)([O-])C(F)(F)F | 5.67 ± 0.25 | 5.65 ± 0.25 | 5.64 ± 0.25 | 5.63 ± 0.25 | 5.62 ± 0.25 | 5.6 ± 0.25 | 5.59 ± 0.25 | 5.58 ± 0.25
6 | C=CCCCCC [1-heptene] + CCCC[N+]1(C)CCCC1.O=S(=O)([O-])C(F)(F)F | 29 ± 1.3 | 27.5 ± 1.2 | 26.1 ± 1.2 | 24.8 ± 1.1 | 23.6 ± 1 | 22.6 ± 1 | 21.6 ± 1 | 20.8 ± 0.9
7 | Cc1ccccc1C [1,2-dimethylbenzene] + CCCC[N+]1(C)CCCC1.O=S(=O)([O-])C(F)(F)F |  | 2.91 ± 0.13 | 2.93 ± 0.13 | 2.95 ± 0.13 | 2.97 ± 0.13 | 2.99 ± 0.13 | 3.01 ± 0.13 | 3.03 ± 0.13
8 | C#CCCC [1-pentyne] + CCCC[N+]1(C)CCCC1.O=S(=O)([O-])C(F)(F)F | 2.59 ± 0.11 | 2.66 ± 0.12 | 2.74 ± 0.12 | 2.82 ± 0.12 | 2.88 ± 0.13 | 2.95 ± 0.13 | 3.01 ± 0.13 | 3.08 ± 0.14
9 | C#CCCCCCC [1-octyne] + CCCC[N+]1(C)CCCC1.O=S(=O)([O-])C(F)(F)F | 7.56 ± 0.33 | 7.63 ± 0.34 | 7.7 ± 0.34 | 7.76 ± 0.34 | 7.83 ± 0.35 | 7.88 ± 0.35 | 7.94 ± 0.35 | 7.99 ± 0.35
10 | C=CCCC [1-pentene] + CCCC[N+]1(C)CCCC1.O=S(=O)([O-])C(F)(F)F | 17.6 ± 0.8 | 16.3 ± 0.7 | 15.3 ± 0.7 | 14.4 ± 0.6 | 13.5 ± 0.6 | 12.8 ± 0.6 | 12.2 ± 0.5 | 
11 | C#CCCCC [1-hexyne] + CCCC[N+]1(C)CCCC1.O=S(=O)([O-])C(F)(F)F | 3.57 ± 0.16 | 3.66 ± 0.16 | 3.76 ± 0.17 | 3.85 ± 0.17 | 3.94 ± 0.17 | 4.02 ± 0.18 | 4.09 ± 0.18 | 4.18 ± 0.18
12 | CCCCO [butan-1-ol] + CCCC[N+]1(C)CCCC1.O=S(=O)([O-])C(F)(F)F |  |  |  | 1.49 ± 0.06 | 1.42 ± 0.06 | 1.35 ± 0.05 | 1.29 ± 0.05 | 1.24 ± 0.05

Further lines, results first:

Row | activity coefficient (298.15 K) | activity coefficient (308.15 K) | activity coefficient (318.15 K) | activity coefficient (328.15 K) | activity coefficient (338.15 K) | activity coefficient (348.15 K) | activity coefficient (358.15 K) | activity coefficient (368.15 K) | Compound
13 | 3.43 ± 0.15 | 3.45 ± 0.15 | 3.46 ± 0.15 | 3.48 ± 0.15 | 3.5 ± 0.15 | 3.51 ± 0.15 | 3.53 ± 0.16 | 3.54 ± 0.16 | CCc1ccccc1 [ethylbenzene] + CCCC[N+]1(C)CCCC1.O=S(=O)([O-])C(F)(F)F
14 | 55.8 ± 2.5 | 50.6 ± 2.3 | 46.4 ± 2.1 | 42.2 ± 1.9 | 38.8 ± 1.7 | 35.8 ± 1.6 | 33.3 ± 1.5 | 31.3 ± 1.4 | CCCCCC [hexane] + CCCC[N+]1(C)CCCC1.O=S(=O)([O-])C(F)(F)F
15 | 52.1 ± 2.3 | 46.1 ± 2.1 | 40.3 ± 1.8 | 35.9 ± 1.6 | 32.2 ± 1.4 | 28.9 ± 1.3 | 26.1 ± 1.2 |  | CCCCC [pentane] + CCCC[N+]1(C)CCCC1.O=S(=O)([O-])C(F)(F)F
16 | 0.717 ± 0.03 | 0.684 ± 0.029 | 0.655 ± 0.029 | 0.628 ± 0.029 | 0.604 ± 0.028 | 0.581 ± 0.028 | 0.563 ± 0.028 | 0.543 ± 0.028 | CO [methanol] + CCCC[N+]1(C)CCCC1.O=S(=O)([O-])C(F)(F)F
17 | 40.9 ± 1.8 | 38.4 ± 1.7 | 36.2 ± 1.6 | 34.3 ± 1.5 | 32.7 ± 1.5 | 31.2 ± 1.4 | 29.8 ± 1.3 | 28.6 ± 1.3 | C=CCCCCCC [oct-1-ene] + CCCC[N+]1(C)CCCC1.O=S(=O)([O-])C(F)(F)F
18 | 71.5 ± 3.2 | 64.7 ± 2.9 | 59.3 ± 2.6 | 54.2 ± 2.4 | 50.4 ± 2.2 | 46.7 ± 2.1 | 43.3 ± 1.9 | 40.8 ± 1.8 | CCCCCCC [heptane] + CCCC[N+]1(C)CCCC1.O=S(=O)([O-])C(F)(F)F
19 |  |  | 0.865 ± 0.032 | 0.83 ± 0.032 | 0.794 ± 0.031 | 0.765 ± 0.031 | 0.739 ± 0.03 | 0.712 ± 0.03 | O [water] + CCCC[N+]1(C)CCCC1.O=S(=O)([O-])C(F)(F)F
20 | 1.02 ± 0.04 | 1.04 ± 0.04 | 1.06 ± 0.04 | 1.08 ± 0.04 | 1.1 ± 0.04 | 1.11 ± 0.04 | 1.13 ± 0.04 | 1.14 ± 0.04 | c1ccsc1 [thiophene] + CCCC[N+]1(C)CCCC1.O=S(=O)([O-])C(F)(F)F
21 |  | 1.26 ± 0.05 | 1.2 ± 0.05 | 1.14 ± 0.04 | 1.08 ± 0.04 | 1.04 ± 0.04 | 0.995 ± 0.035 | 0.953 ± 0.034 | CCCO [propan-1-ol] + CCCC[N+]1(C)CCCC1.O=S(=O)([O-])C(F)(F)F
22 | 21.6 ± 1 | 20.2 ± 0.9 | 19.2 ± 0.9 | 18.1 ± 0.8 | 17.3 ± 0.8 | 16.4 ± 0.7 | 15.7 ± 0.7 | 15 ± 0.7 | C=CCCCC [hex-1-ene] + CCCC[N+]1(C)CCCC1.O=S(=O)([O-])C(F)(F)F
